Where “and” joins values, the source holds several entries; their conditions need not be identical. Equal values may be shown once.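 Compound exposure: 48 hours, 5 concentrations, 96-well plates. GI50 marks 50% less growth. TGI is the concentration that stops growth completely.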
How the values were obtained:
Assay in all cases: growth of human tumour cells (NCI), 48 h
[1] = system: HT29 colon
[2] = system: UACC-257 melanoma
[3] = system: HOP-92 NSCLC
[4] = system: HCC-2998 colon
[5] = system: HS 578T breast
[6] = system: IGROV1 ovarian
[7] = system: MALME-3M melanoma
[8] = system: U251 CNS
[9] = system: SK-MEL-5 melanoma
[10] = system: UACC-62 melanoma

Structure (SMILES)	GI50 [1]	TGI [1]	GI50 [2]	TGI [2]	GI50 [3]	TGI [3]	GI50 [4]	TGI [4]	GI50 [5]	TGI [5]	GI50 [6]	TGI [6]	GI50 [7]	TGI [7]	GI50 [8]	TGI [8]	GI50 [9]	TGI [9]	GI50 [10]	TGI [10]
COc1cnc2c(c1)C(=O)c1c-2n(CCCN2CCCC2)c(=O)c2cc(F)ccc12	0.209 µM	1.1 µM	0.396 µM	2.2 µM	0.531 µM	7.8 µM	2.65 µM	20.7 µM	1.69 µM	13.5 µM	0.363 µM	3.34 µM	0.452 µM	1.73 µM	0.116 µM	0.467 µM	0.309 µM	1.29 µM	0.471 µM	2.21 µM
O=[N+]([O-])c1ccc2ncccc2c1Cl	3.45 µM	9.29 µM	7.62 µM	29.3 µM	6.57 µM	24.6 µM	3.67 µM	14.2 µM	7.69 µM	> 100 µM	3.89 µM	13.8 µM	15.2 µM	54.4 µM	3.38 µM	11.8 µM	2.95 µM	10 µM	5.84 µM	20.4 µM
COC1=Nc2ccccc2S(=O)(=O)C=C1	–	26.7 µM	0.671 µM	20.5 µM	0.742 µM	15.2 µM	–	36.9 µM	–	53.4 µM	–	28.1 µM	–	6.84 µM	–	24.4 µM	–	24.5 µM	–	37.4 µM
C/C(Cc1ccc(Cl)cc1)=C(/c1ccc(Cl)cc1)c1ccc(OCCN(C)C)cc1	1.36 µM	5.85 µM	4.24 µM	9.38 µM	1.62 µM	6.48 µM	2.03 µM	6.7 µM	4.72 µM	11 µM	3.73 µM	8.56 µM	3.68 µM	8.63 µM	3.72 µM	8.6 µM	4.4 µM	8.78 µM	5.19 µM	9.75 µM
C=C(C)[C@@H]1CC[C@]2(COC3CCCCO3)CC[C@]3(C)[C@H](CC[C@@H]4[C@@]5(C)C=C(C=O)C(=O)C(C)(C)[C@@H]5CC[C@]43C)[C@@H]12 (some centres not stated)	1.7 µM	3.49 µM	2.06 µM	4.22 µM	1.49 µM	2.89 µM	2.04 µM	4.2 µM	1.39 µM	3.77 µM	2.13 µM	4.56 µM	1.66 µM	3.45 µM	1.18 µM	2.71 µM	1.58 µM	2.93 µM	1.27 µM	3.55 µM
COc1ccc(-c2cc(-c3cc(OC)c(OC)c(OC)c3)c(C#N)c(N3CCOCC3)n2)cc1O	10.3 µM	> 100 µM	38.4 µM	> 100 µM	5.67 µM	> 100 µM	29.2 µM	> 100 µM	2.45 µM	> 28.3 µM	19 µM	> 100 µM	> 100 µM	> 100 µM	3.4 µM	> 94.1 µM	3.3 µM	> 75.2 µM	60.2 µM	> 100 µM
O=C(c1ccccc1)c1nc2ccc(C(F)(F)F)cc2[n+]([O-])c1C(F)(F)F	48.6 µM	> 100 µM	22.7 µM	> 100 µM	15.1 µM	78.5 µM	30.1 µM	> 100 µM	52.6 µM	> 100 µM	16.4 µM	52.2 µM	47.6 µM	> 100 µM	50.3 µM	> 100 µM	17.5 µM	48 µM	33.7 µM	> 100 µM
Nc1nc(N)c2nc(CNc3ccc(C(=O)NC(CCCNC(=O)c4ccccc4C(=O)O)C(=O)O)cc3)cnc2n1 (configuration not stated)	0.00102 µM	> 100 µM	0.0155 µM	> 100 µM	< 0.01 µM and 0.0274 µM	–	0.00132 µM	> 100 µM	–	> 100 µM	0.0249 µM	> 100 µM	–	> 100 µM	–	> 100 µM	0.00577 µM	> 100 µM	< 0.01 µM and 0.00129 µM	> 100 µM
COc1ccccc1S(=O)(=O)Nc1ccc2c(c1)CN(C)C(=O)N2	2.55 µM and 2.26 µM	> 100 µM	4.46 µM and 3.86 µM	> 100 µM	2.22 µM and 1.18 µM	> 51.9 µM and 71.6 µM	6.76 µM and 9.52 µM	> 65.1 µM and 81.5 µM	2.53 µM and 2.23 µM	> 100 µM	6.42 µM and 5.7 µM	> 100 µM	4.35 µM and 1.75 µM	> 100 µM	14.1 µM and 13.2 µM	> 100 µM	3.88 µM and 4.42 µM	> 100 µM	1.26 µM and 1.12 µM	> 100 µM
Cc1c(NC(=O)OC[C@@H]2COCCN2)cn2ncnc(Nc3ccc4c(cnn4Cc4cccc(F)c4)c3)c12	6.38 µM and 4.65 µM	> 10 µM and 16.9 µM	> 10 µM and 5.34 µM	> 10 µM and 18.2 µM	1.45 µM and 0.991 µM	> 10 µM and 10.7 µM	> 10 µM and 12 µM	> 10 µM and 25 µM	2.32 µM and 5.49 µM	> 10 µM and 52.2 µM	0.855 µM and 2.16 µM	> 10 µM and 19.9 µM	> 10 µM and 10.5 µM	> 10 µM and 31.2 µM	7.5 µM and 5.16 µM	> 10 µM and 18.6 µM	5.3 µM and 5.56 µM	> 10 µM and 17.4 µM	> 10 µM and 4.82 µM	> 10 µM and 18.7 µM
C=C1C(=O)O[C@H]2[C@H]1CC/C(COC(=O)c1ccc(C#N)cc1)=C\CC[C@@]1(C)O[C@@H]21	1.62 µM	4.02 µM	1.69 µM	4.1 µM	1.59 µM	3.8 µM	4.1 µM	14.3 µM	3.04 µM	15.9 µM	1.38 µM	4.27 µM	2.04 µM	4.16 µM	2.86 µM	10.3 µM	1.85 µM	3.75 µM	1.95 µM	4.33 µM
CCOC(=O)c1cc2c(n1Cc1ccccc1)-c1oncc1CC2	3.23 µM	14.4 µM	10.7 µM	59.7 µM	5.24 µM	42.7 µM	7.87 µM	37.1 µM	2.75 µM	17.5 µM	4.98 µM	60.1 µM	6.28 µM	37 µM	4.73 µM	34 µM	2.97 µM	12 µM	3.45 µM	17.2 µM
Cc1cc(C)nc(SC2=C(Nc3cccc(Cl)c3C)C(=O)N(Cc3ccccc3)C2=O)n1	> 160 µM	> 160 µM	> 160 µM	> 160 µM	> 160 µM	> 160 µM	> 160 µM	> 160 µM	> 160 µM	> 160 µM	> 160 µM	> 160 µM	> 160 µM	> 160 µM	> 160 µM	> 160 µM	> 160 µM	> 160 µM	> 160 µM	> 160 µM
COc1ccc(Cn2cc3c(c2-c2cc(OC)c(OC)c(OC)c2)CCc2cnoc2-3)cc1[N+](=O)[O-]	0.411 µM	2.28 µM	4.03 µM	> 100 µM	1.07 µM	60.6 µM	1.93 µM	> 31.6 µM	1.13 µM	–	0.82 µM	51.5 µM	0.387 µM	> 100 µM	1.2 µM	> 100 µM	0.45 µM	> 71.6 µM	0.404 µM	> 100 µM

From PubChem BioAssay (NCI)
